Data published in ChEMBL document CHEMBL1681728, “An automated, polymer-assisted strategy for the preparation of urea and thiourea derivatives of 15-membered azalides as potential antimalarial chemotherapeutics” (Bioorg Med Chem, 2011).

Experiments:
Type in all cases: functional, organism-based
[1] = tested on: Plasmodium falciparum; experiment: Antimalarial activity against chloroquine-,pyrimethamine-resistant Plasmodium falciparum W2 assessed as inhibition of [3H]hypoxanthine incorporation after 96 hrs by microtiter plate scintillation counting
[2] = tested on: Plasmodium falciparum; experiment: Antimalarial activity against chloroquine-sensitive Plasmodium falciparum D6 assessed as inhibition of [3H]hypoxanthine incorporation after 96 hrs by microtiter plate scintillation counting
[3] = tested on: Plasmodium falciparum; experiment: Antimalarial activity against multidrug-resistant Plasmodium falciparum TM91C235 assessed as inhibition of [3H]hypoxanthine incorporation after 96 hrs by microtiter plate scintillation counting

SMILES	IC50 [1]	IC50 [2]	IC50 [3]
CC[C@H]1OC(=O)[C@H](C)[C@@H](O[C@H]2C[C@@](C)(OC)[C@@H](O)[C@H](C)O2)[C@H](C)[C@@H](O[C@@H]2O[C@H](C)C[C@H](N(C)C)[C@H]2O)[C@](C)(O)C[C@@H](C)CN(CCCNC(=O)Nc2ccc(OCc3ccccc3)cc2)[C@H](C)[C@@H](O)[C@]1(C)O	175 nM	299 nM	146 nM
CC[C@H]1OC(=O)[C@H](C)[C@@H](O[C@H]2C[C@@](C)(OC)[C@@H](O)[C@H](C)O2)[C@H](C)[C@@H](O[C@@H]2O[C@H](C)C[C@H](N(C)C)[C@H]2O)[C@](C)(O)C[C@@H](C)CN(CCCNC(=S)Nc2ccc(Cl)c(C(F)(F)F)c2)[C@H](C)[C@@H](O)[C@]1(C)O	35 nM	54.3 nM	56.3 nM
CCCCNC(=O)NCCCN1C[C@H](C)C[C@@](C)(O)[C@H](O[C@@H]2O[C@H](C)C[C@H](N(C)C)[C@H]2O)[C@@H](C)[C@H](O[C@H]2C[C@@](C)(OC)[C@@H](O)[C@H](C)O2)[C@@H](C)C(=O)O[C@H](CC)[C@@](C)(O)[C@H](O)[C@H]1C	370 nM	5800 nM	820 nM
CC[C@H]1OC(=O)[C@H](C)[C@@H](O[C@H]2C[C@@](C)(OC)[C@@H](O)[C@H](C)O2)[C@H](C)[C@@H](O[C@@H]2O[C@H](C)C[C@H](N(C)C)[C@H]2O)[C@](C)(O)C[C@@H](C)CN(CCCNC(=S)NCCCN(CC)CC)[C@H](C)[C@@H](O)[C@]1(C)O	3130 nM	794 nM	12400 nM
CC[C@H]1OC(=O)[C@H](C)[C@@H](O[C@H]2C[C@@](C)(OC)[C@@H](O)[C@H](C)O2)[C@H](C)[C@@H](O[C@@H]2O[C@H](C)C[C@H](N(C)C)[C@H]2O)[C@](C)(O)C[C@@H](C)CN(CCCNC(=O)NC(C)(C)CC(C)(C)C)[C@H](C)[C@@H](O)[C@]1(C)O	78.4 nM	269 nM	183 nM
CCNC(=O)NCCCN1C[C@H](C)C[C@@](C)(O)[C@H](O[C@@H]2O[C@H](C)C[C@H](N(C)C)[C@H]2O)[C@@H](C)[C@H](O[C@H]2C[C@@](C)(OC)[C@@H](O)[C@H](C)O2)[C@@H](C)C(=O)O[C@H](CC)[C@@](C)(O)[C@H](O)[C@H]1C	13700 nM	13700 nM	1980 nM
CC[C@H]1OC(=O)[C@H](C)[C@@H](O[C@H]2C[C@@](C)(OC)[C@@H](O)[C@H](C)O2)[C@H](C)[C@@H](O[C@@H]2O[C@H](C)C[C@H](N(C)C)[C@H]2O)[C@](C)(O)C[C@@H](C)CN(CCCNC(=S)Nc2ccc(OC(F)F)cc2)[C@H](C)[C@@H](O)[C@]1(C)O	63 nM	216 nM	121 nM
CC[C@H]1OC(=O)[C@H](C)[C@@H](O[C@H]2C[C@@](C)(OC)[C@@H](O)[C@H](C)O2)[C@H](C)[C@@H](O[C@@H]2O[C@H](C)C[C@H](N(C)C)[C@H]2O)[C@](C)(O)C[C@@H](C)CN(CCCNC(=O)Nc2ccc(C#N)cc2)[C@H](C)[C@@H](O)[C@]1(C)O	98.3 nM	386 nM	206 nM
CC[C@H]1OC(=O)[C@H](C)[C@@H](O[C@H]2C[C@@](C)(OC)[C@@H](O)[C@H](C)O2)[C@H](C)[C@@H](O[C@@H]2O[C@H](C)C[C@H](N(C)C)[C@H]2O)[C@](C)(O)C[C@@H](C)CN(CCCNC(=O)NC2CCN(C(=O)OCc3ccccc3)CC2)[C@H](C)[C@@H](O)[C@]1(C)O	276 nM	635 nM	236 nM
CC[C@H]1OC(=O)[C@H](C)[C@@H](O[C@H]2C[C@@](C)(OC)[C@@H](O)[C@H](C)O2)[C@H](C)[C@@H](O[C@@H]2O[C@H](C)C[C@H](N(C)C)[C@H]2O)[C@](C)(O)C[C@@H](C)CN(CCCNC(=O)Nc2ccc3c(c2)CCC3)[C@H](C)[C@@H](O)[C@]1(C)O	73.6 nM	266 nM	96.2 nM
CC[C@H]1OC(=O)[C@H](C)[C@@H](O[C@H]2C[C@@](C)(OC)[C@@H](O)[C@H](C)O2)[C@H](C)[C@@H](O[C@@H]2O[C@H](C)C[C@H](N(C)C)[C@H]2O)[C@](C)(O)C[C@@H](C)CN(CCCNC(=O)NCCc2cccs2)[C@H](C)[C@@H](O)[C@]1(C)O	1040 nM	932 nM	405 nM
CC[C@H]1OC(=O)[C@H](C)[C@@H](O[C@H]2C[C@@](C)(OC)[C@@H](O)[C@H](C)O2)[C@H](C)[C@@H](O[C@@H]2O[C@H](C)C[C@H](N(C)C)[C@H]2O)[C@](C)(O)C[C@@H](C)CN(CCCNC(=O)Nc2ccc3c(c2)OCCCO3)[C@H](C)[C@@H](O)[C@]1(C)O	40.8 nM	28.1 nM	60 nM
CC[C@H]1OC(=O)[C@H](C)[C@@H](O[C@H]2C[C@@](C)(OC)[C@@H](O)[C@H](C)O2)[C@H](C)[C@@H](O[C@@H]2O[C@H](C)C[C@H](N(C)C)[C@H]2O)[C@](C)(O)C[C@@H](C)CN(CCCNC(=O)Nc2ccc(F)c(F)c2)[C@H](C)[C@@H](O)[C@]1(C)O	89.6 nM	300 nM	127 nM
CC[C@H]1OC(=O)[C@H](C)[C@@H](O[C@H]2C[C@@](C)(OC)[C@@H](O)[C@H](C)O2)[C@H](C)[C@@H](O[C@@H]2O[C@H](C)C[C@H](N(C)C)[C@H]2O)[C@](C)(O)C[C@@H](C)CN(CCCNC(=S)Nc2ccc(OC)cc2)[C@H](C)[C@@H](O)[C@]1(C)O	77 nM	480 nM	209 nM
CC[C@H]1OC(=O)[C@H](C)[C@@H](O[C@H]2C[C@@](C)(OC)[C@@H](O)[C@H](C)O2)[C@H](C)[C@@H](O[C@@H]2O[C@H](C)C[C@H](N(C)C)[C@H]2O)[C@](C)(O)C[C@@H](C)CN(CCCNC(=S)Nc2ccc3c(c2)OCO3)[C@H](C)[C@@H](O)[C@]1(C)O	182 nM	329 nM	173 nM
CC[C@H]1OC(=O)[C@H](C)[C@@H](O[C@H]2C[C@@](C)(OC)[C@@H](O)[C@H](C)O2)[C@H](C)[C@@H](O[C@@H]2O[C@H](C)C[C@H](N(C)C)[C@H]2O)[C@](C)(O)C[C@@H](C)CN(CCCNC(=O)Nc2ccccc2-c2ccccc2)[C@H](C)[C@@H](O)[C@]1(C)O	202 nM	254 nM	137 nM
CC[C@H]1OC(=O)[C@H](C)[C@@H](O[C@H]2C[C@@](C)(OC)[C@@H](O)[C@H](C)O2)[C@H](C)[C@@H](O[C@@H]2O[C@H](C)C[C@H](N(C)C)[C@H]2O)[C@](C)(O)C[C@@H](C)CN(CCCNC(=S)Nc2ccsc2C(=O)OC)[C@H](C)[C@@H](O)[C@]1(C)O	375 nM	452 nM	330 nM
CC[C@H]1OC(=O)[C@H](C)[C@@H](O[C@H]2C[C@@](C)(OC)[C@@H](O)[C@H](C)O2)[C@H](C)[C@@H](O[C@@H]2O[C@H](C)C[C@H](N(C)C)[C@H]2O)[C@](C)(O)C[C@@H](C)CN(CCCNC(=S)Nc2ccccc2F)[C@H](C)[C@@H](O)[C@]1(C)O	400 nM	987 nM	122 nM
CC[C@H]1OC(=O)[C@H](C)[C@@H](O[C@H]2C[C@@](C)(OC)[C@@H](O)[C@H](C)O2)[C@H](C)[C@@H](O[C@@H]2O[C@H](C)C[C@H](N(C)C)[C@H]2O)[C@](C)(O)C[C@@H](C)CN(CCCNC(=O)Nc2ccc3c(c2)OCO3)[C@H](C)[C@@H](O)[C@]1(C)O	111 nM	835 nM	265 nM
CC[C@H]1OC(=O)[C@H](C)[C@@H](O[C@H]2C[C@@](C)(OC)[C@@H](O)[C@H](C)O2)[C@H](C)[C@@H](O[C@@H]2O[C@H](C)C[C@H](N(C)C)[C@H]2O)[C@](C)(O)C[C@@H](C)CN(CCCNC(=O)Nc2cccs2)[C@H](C)[C@@H](O)[C@]1(C)O	721 nM	964 nM	549 nM
CC[C@H]1OC(=O)[C@H](C)[C@@H](O[C@H]2C[C@@](C)(OC)[C@@H](O)[C@H](C)O2)[C@H](C)[C@@H](O[C@@H]2O[C@H](C)C[C@H](N(C)C)[C@H]2O)[C@](C)(O)C[C@@H](C)CN(CCCNC(=S)Nc2ccc(Cl)cc2)[C@H](C)[C@@H](O)[C@]1(C)O	53.4 nM	188 nM	108 nM
CC[C@H]1OC(=O)[C@H](C)[C@@H](O[C@H]2C[C@@](C)(OC)[C@@H](O)[C@H](C)O2)[C@H](C)[C@@H](O[C@@H]2O[C@H](C)C[C@H](N(C)C)[C@H]2O)[C@](C)(O)C[C@@H](C)CN(CCCNC(=S)Nc2ccc([N+](=O)[O-])cc2OC)[C@H](C)[C@@H](O)[C@]1(C)O	50.1 nM	74.5 nM	69.7 nM
CC[C@H]1OC(=O)[C@H](C)[C@@H](O[C@H]2C[C@@](C)(OC)[C@@H](O)[C@H](C)O2)[C@H](C)[C@@H](O[C@@H]2O[C@H](C)C[C@H](N(C)C)[C@H]2O)[C@](C)(O)C[C@@H](C)CN(CCCNC(=S)Nc2c(F)cccc2F)[C@H](C)[C@@H](O)[C@]1(C)O	86.3 nM	509 nM	188 nM
CC[C@H]1OC(=O)[C@H](C)[C@@H](O[C@H]2C[C@@](C)(OC)[C@@H](O)[C@H](C)O2)[C@H](C)[C@@H](O[C@@H]2O[C@H](C)C[C@H](N(C)C)[C@H]2O)[C@](C)(O)C[C@@H](C)CN(CCCNC(=S)NCCN2CCOCC2)[C@H](C)[C@@H](O)[C@]1(C)O	2090 nM	12400 nM	3320 nM
CC[C@H]1OC(=O)[C@H](C)[C@@H](O[C@H]2C[C@@](C)(OC)[C@@H](O)[C@H](C)O2)[C@H](C)[C@@H](O[C@@H]2O[C@H](C)C[C@H](N(C)C)[C@H]2O)[C@](C)(O)C[C@@H](C)CN(CCCNC(=S)Nc2ccc(C#N)cc2)[C@H](C)[C@@H](O)[C@]1(C)O	50 nM	132 nM	78.2 nM
CC[C@H]1OC(=O)[C@H](C)[C@@H](O[C@H]2C[C@@](C)(OC)[C@@H](O)[C@H](C)O2)[C@H](C)[C@@H](O[C@@H]2O[C@H](C)C[C@H](N(C)C)[C@H]2O)[C@](C)(O)C[C@@H](C)CN(CCCNC(=O)Nc2ccc(C(F)(F)F)cc2)[C@H](C)[C@@H](O)[C@]1(C)O	74.6 nM	160 nM	84.2 nM
